Results taken from patent US6660310B2, “Method to infuse fresh fruits and vegetables with an agent” (American Moxie LLC, priority 2000, dated 2003).
Peptide text beside a SMILES is read from it.

Tests used:
[1] = test system: GabaA, Benzodiazepine (Central) Site; test: GabaA, Benzodiazepine (Central) Site Binding Assay; set-up: species or system Bovine
[2] = extracts from Experiment 5; tested only in apple and strawberry
[3] = Taste test: sweetness of materials infused with sweetening agents; conditions: apples, strawberries
Description: Apples, strawberries, carrots and celery were infused with either aspartame or saccharin with standard procedures, as described above, and sweetness was compared with untreated control. […] Clearly an optimal amount of sweetening agent would be lower. The taste test was repeated using a 0.2% concentration of each sweetening agent with the four biological materials.

[4] = Taste test: taste or "heat" of materials infused with capsaicin; conditions: carrots, apples and squash infused with 2% capsaicin
Description: Carrots, apples and squash were infused with 2% capsaicin (the active constituent of cayenne pepper) with standard procedures, as described above, and the taste or “heat” of the infused materials was compared with untreated control materials.

[5] = carrots and celery infused with standard procedures
[6] = carrots and celery, 0.2% concentration of sweetening agent

SMILES: CN1C(=O)CN=C(c2ccccc2F)c2cc([N+](=O)[O-])ccc21 [Flunitrazepam, flunitrazepam]
- specific binding of extract containing the infused agent ([1]; extracts from Experiment 5, tested only in celery and tomato): demonstrated specific binding

SMILES: C[C@]1(O)CC[C@H]2[C@@H]3CCC4=CC(=O)CCC4=C3C=C[C@@]21C [Methyltrienolone, methyltrienolone]
- specific binding of extract containing the infused agent [2]: demonstrated specific binding

SMILES: CN1C(=O)CN=C(c2ccccc2F)c2cc([N+](=O)[O-])ccc21 [[^3H] Flunitrazepam]
- Kd ([1]; assay characteristic of the radioligand, bovine cortical membranes, read-out: KD (binding affinity)): 1.4 nM

SMILES: COC(=O)[C@H](Cc1ccccc1)NC(=O)[C@@H](N)CC(=O)O [aspartame] (H-Asp-Phe-OMe)
- sweetness compared with untreated control [3, 5]: markedly and significantly sweeter
- sweetness compared with untreated control [3, 6]: significantly enhanced over the untreated controls

SMILES: COc1cc(CNC(=O)CCCCC=CC(C)C)ccc1O [capsaicin, 8-methyl-N-vanillyl-6-nonenamide]
- taste or "heat" compared with untreated control [4]: markedly and significantly “hotter”

SMILES: O=C1NS(=O)(=O)c2ccccc21 [saccharin]
- sweetness compared with untreated control [3, 5]: markedly and significantly sweeter
- sweetness compared with untreated control [3, 6]: significantly enhanced over the untreated controls
